From patent US10499642B2, “Isoxazoline-substituted benzamides and analogues as insecticides” (SYNGENTA PARTICIPATIONS AG, priority 2015, dated 2019)
Where two headings read alike, the source gives them in different places.

Key:
Assay type in all cases: in vivo
Plutella xylostella = Plutella xylostella (diamond back moth) artificial diet test; details: 120 h, read-out: effect in at least one of the two categories (mortality or growth inhibition)
Outline: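 Artificial diet treated with aqueous compound solutions made from DMSO stocks, dried, then infested with L2 larvae (10 to 15 per well). Mortality and growth inhibition scored versus untreated controls 5 days after infestation. Application rate 200 ppm.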

Myzus persicae = Myzus persicae (green peach aphid) sunflower leaf disc test; details: foliar, 144 h
Protocol: Myzus persicae (Green Peach Aphid):
Sunflower leaf discs were placed on agar in a 24-well microtiter plate and sprayed with test solutions at an application rate of 200 ppm. After drying, the leaf discs were infested with an aphid population of mixed ages. After an incubation period of 6 days after treatment, samples were checked for mortality. The following compounds gave at least 80% mortality of Myzus persicae: […]

Spodoptera littoralis = Spodoptera littoralis (Egyptian cotton leaf worm) cotton leaf disc test; details: foliar, 72 h, read-out: control (at least one of mortality, anti-feedant effect, and growth inhibition)
Outline: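 Cotton leaf discs on agar were sprayed with aqueous dilutions of 10′000 ppm DMSO stocks, dried and infested with five L1 larvae. Mortality, anti-feedant effect and growth inhibition were scored against untreated samples 3 days after infestation. Control = any of these higher than untreated.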

Diabrotica Balteata = test: Diabrotica balteata (corn root worm) maize sprout test; details: 96 h, read-out: effect in at least one of the two categories (mortality or growth inhibition)
Outline: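 Maize sprouts on agar were sprayed with aqueous test solutions made from 10′000 ppm DMSO stocks, dried, then infested with 6 to 10 L2 larvae per well. Mortality and growth inhibition versus untreated samples were assessed 4 days after infestation; application rate 200 ppm.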

Tetranychus urticae = Tetranychus urticae (two-spotted spider mite) bean leaf disc test; details: foliar, 192 h
Protocol: Tetranychus urticae (Two-Spotted Spider Mite):
Bean leaf discs on agar in 24-well microtiter plates were sprayed with aqueous test solutions prepared from 10′000 ppm DMSO stock solutions. After drying the leaf discs were infested with a mite population of mixed ages. The samples were assessed for mortality on mixed population (mobile stages) 8 days after infestation.

Thrips tabaci = Thrips tabaci (onion thrips) sunflower leaf disc test; details: foliar, 144 h
Protocol: Thrips tabaci (Onion Thrips):
Sunflower leaf discs were placed on agar in 24-well microtiter plates and sprayed with aqueous test solutions prepared from 10′000 ppm DMSO stock solutions. After drying the leaf discs were infested with a thrips population of mixed ages. The samples were assessed for mortality 6 days after infestation.

[1] = application rate 200 ppm, artificial diet, L2 larvae, 5 days after infestation
[2] = application rate 200 ppm, sunflower leaf discs, population of mixed ages, 6 days after treatment, read-out: mortality
[3] = application rate 200 ppm, cotton leaf discs, L1 larvae, 3 days after infestation
[4] = application rate 200 ppm, maize sprouts, L2 larvae, 4 days after infestation
[5] = application rate 200 ppm, bean leaf discs, mixed population (mobile stages), 8 days after infestation, read-out: mortality
[6] = application rate 200 ppm, sunflower leaf discs, population of mixed ages, 6 days after infestation, read-out: mortality

CC1=NOC(NC(=O)c2ccc(C3=NO[C@@](c4cc(Cl)c(F)c(Cl)c4)(C(F)(F)F)C3)cc2Br)C1 (stereo partly drawn) [Compound A036, 2-bromo-4-[(5S)-5-(3,5-dichloro-4-fluoro-phenyl)-5-(trifluoromethyl)-4H-isoxazol-3-yl]-N-(3-methyl-4,5-dihydroisoxazol-5-yl)benzamide]
≥ 80%: percent effect (mortality or growth inhibition) at 200 ppm (Plutella xylostella) | mortality at 200 ppm (Myzus persicae) | percent control (mortality, anti-feedant effect or growth inhibition) at 200 ppm (Spodoptera littoralis) | percent effect (mortality or growth inhibition) at 200 ppm (Diabrotica Balteata) | mortality at 200 ppm (Tetranychus urticae) | mortality at 200 ppm (Thrips tabaci)

CC1=NOC(NC(=O)c2ccc(C3=NO[C@@](c4cc(Cl)c(Cl)c(Cl)c4)(C(F)(F)F)C3)cc2Br)C1 (stereo partly drawn) [Compound A037, 2-bromo-N-(3-methyl-4,5-dihydroisoxazol-5-yl)-4-[(5S)-5-(3,4,5-trichlorophenyl)-5-(trifluoromethyl)-4H-isoxazol-3-yl]benzamide]
≥ 80%: percent effect (mortality or growth inhibition) at 200 ppm (Plutella xylostella) | mortality at 200 ppm (Myzus persicae) | percent control (mortality, anti-feedant effect or growth inhibition) at 200 ppm (Spodoptera littoralis) | percent effect (mortality or growth inhibition) at 200 ppm (Diabrotica Balteata) | mortality at 200 ppm (Tetranychus urticae) | mortality at 200 ppm (Thrips tabaci)

CC1=NOC(NC(=O)c2ccc(C3=NO[C@@](c4cc(Cl)c(F)c(Cl)c4)(C(F)(F)F)C3)cc2Cl)C1 (stereo partly drawn) [Compound A038, 2-chloro-4-[(5S)-5-(3,5-dichloro-4-fluoro-phenyl)-5-(trifluoromethyl)-4H-isoxazol-3-yl]-N-(3-methyl-4,5-dihydroisoxazol-5-yl)benzamide]
≥ 80%: percent effect (mortality or growth inhibition) at 200 ppm (Plutella xylostella) | mortality at 200 ppm (Myzus persicae) | percent control (mortality, anti-feedant effect or growth inhibition) at 200 ppm (Spodoptera littoralis) | percent effect (mortality or growth inhibition) at 200 ppm (Diabrotica Balteata) | mortality at 200 ppm (Tetranychus urticae) | mortality at 200 ppm (Thrips tabaci)

CC1=NOC(N(C=O)C(=O)c2ccc(C3=NO[C@@](c4cc(Cl)cc(C(F)(F)F)c4)(C(F)(F)F)C3)cc2C)C1 (stereo partly drawn) [Compound A039, 4-[(5S)-5-[3-chloro-5-(trifluoromethyl)phenyl]-5-(trifluoromethyl)-4H-isoxazol-3-yl]-N-formyl-2-methyl-N-(3-methyl-4,5-dihydroisoxazol-5-yl)benzamide]
≥ 80%: percent effect (mortality or growth inhibition) at 200 ppm (Plutella xylostella) | mortality at 200 ppm (Myzus persicae) | percent control (mortality, anti-feedant effect or growth inhibition) at 200 ppm (Spodoptera littoralis) | percent effect (mortality or growth inhibition) at 200 ppm (Diabrotica Balteata) | mortality at 200 ppm (Tetranychus urticae) | mortality at 200 ppm (Thrips tabaci)

CC1=NOC(N(C=O)C(=O)c2ccc(C3=NO[C@@](c4cc(Br)cc(C(F)(F)F)c4)(C(F)(F)F)C3)cc2C)C1 (stereo partly drawn) [Compound A040, 4-[(5S)-5-[3-bromo-5-(trifluoromethyl)phenyl]-5-(trifluoromethyl)-4H-isoxazol-3-yl]-N-formyl-2-methyl-N-(3-methyl-4,5-dihydroisoxazol-5-yl)benzamide]
≥ 80%: percent effect (mortality or growth inhibition) at 200 ppm (Plutella xylostella; [1]) | mortality at 200 ppm (Myzus persicae; [2]) | percent control (mortality, anti-feedant effect or growth inhibition) at 200 ppm (Spodoptera littoralis; [3]) | percent effect (mortality or growth inhibition) at 200 ppm (Diabrotica Balteata; [4]) | mortality at 200 ppm (Tetranychus urticae; [5]) | mortality at 200 ppm (Thrips tabaci; [6])

COC1=NOC(NC(=O)c2ccc(C3=NO[C@@](c4cc(Cl)c(Cl)c(Cl)c4)(C(F)(F)F)C3)cc2C)C1 (stereo partly drawn) [Compound A041]
≥ 80%: percent effect (mortality or growth inhibition) at 200 ppm (Plutella xylostella) | mortality at 200 ppm (Myzus persicae) | percent control (mortality, anti-feedant effect or growth inhibition) at 200 ppm (Spodoptera littoralis) | percent effect (mortality or growth inhibition) at 200 ppm (Diabrotica Balteata) | mortality at 200 ppm (Tetranychus urticae) | mortality at 200 ppm (Thrips tabaci)

COC1=NOC(NC(=O)c2ccc(C3=NO[C@@](c4cc(Cl)cc(C(F)(F)F)c4)(C(F)(F)F)C3)cc2C)C1 (stereo partly drawn) [Compound A042]
≥ 80%: percent effect (mortality or growth inhibition) at 200 ppm (Plutella xylostella) | mortality at 200 ppm (Myzus persicae) | percent control (mortality, anti-feedant effect or growth inhibition) at 200 ppm (Spodoptera littoralis) | percent effect (mortality or growth inhibition) at 200 ppm (Diabrotica Balteata) | mortality at 200 ppm (Tetranychus urticae) | mortality at 200 ppm (Thrips tabaci)

COC1=NOC(NC(=O)c2ccc(C3=NO[C@@](c4cc(Cl)c(Cl)c(Cl)c4)(C(F)(F)F)C3)cc2Cl)C1 (stereo partly drawn) [Compound A043]
≥ 80%: percent effect (mortality or growth inhibition) at 200 ppm (Plutella xylostella) | mortality at 200 ppm (Myzus persicae) | percent control (mortality, anti-feedant effect or growth inhibition) at 200 ppm (Spodoptera littoralis) | percent effect (mortality or growth inhibition) at 200 ppm (Diabrotica Balteata) | mortality at 200 ppm (Tetranychus urticae) | mortality at 200 ppm (Thrips tabaci)

COC1=NOC(NC(=O)c2ccc(C3=NO[C@@](c4cc(Br)cc(C(F)(F)F)c4)(C(F)(F)F)C3)cc2C)C1 (stereo partly drawn) [Compound A044]
≥ 80%: percent effect (mortality or growth inhibition) at 200 ppm (Plutella xylostella; [1]) | mortality at 200 ppm (Myzus persicae; [2]) | percent control (mortality, anti-feedant effect or growth inhibition) at 200 ppm (Spodoptera littoralis; [3]) | percent effect (mortality or growth inhibition) at 200 ppm (Diabrotica Balteata; [4]) | mortality at 200 ppm (Tetranychus urticae; [5]) | mortality at 200 ppm (Thrips tabaci; [6])

COC1=NOC(NC(=O)c2ccc(C3=NO[C@@](c4cc(Cl)c(F)c(Cl)c4)(C(F)(F)F)C3)cc2Cl)C1 (stereo partly drawn) [Compound A045]
≥ 80%: percent effect (mortality or growth inhibition) at 200 ppm (Plutella xylostella) | mortality at 200 ppm (Myzus persicae) | percent control (mortality, anti-feedant effect or growth inhibition) at 200 ppm (Spodoptera littoralis) | percent effect (mortality or growth inhibition) at 200 ppm (Diabrotica Balteata) | mortality at 200 ppm (Tetranychus urticae) | mortality at 200 ppm (Thrips tabaci)

CCOC1=NOC(NC(=O)c2ccc(C3=NO[C@@](c4cc(Cl)c(F)c(Cl)c4)(C(F)(F)F)C3)cc2C)C1 (stereo partly drawn) [Compound A046]
≥ 80%: percent effect (mortality or growth inhibition) at 200 ppm (Plutella xylostella) | mortality at 200 ppm (Myzus persicae) | percent control (mortality, anti-feedant effect or growth inhibition) at 200 ppm (Spodoptera littoralis) | percent effect (mortality or growth inhibition) at 200 ppm (Diabrotica Balteata) | mortality at 200 ppm (Tetranychus urticae) | mortality at 200 ppm (Thrips tabaci)

CCOC1=NOC(NC(=O)c2ccc(C3=NO[C@@](c4cc(Cl)cc(C(F)(F)F)c4)(C(F)(F)F)C3)cc2C)C1 (stereo partly drawn) [Compound A047]
≥ 80%: percent effect (mortality or growth inhibition) at 200 ppm (Plutella xylostella) | mortality at 200 ppm (Myzus persicae) | percent control (mortality, anti-feedant effect or growth inhibition) at 200 ppm (Spodoptera littoralis) | percent effect (mortality or growth inhibition) at 200 ppm (Diabrotica Balteata) | mortality at 200 ppm (Tetranychus urticae) | mortality at 200 ppm (Thrips tabaci)

CSC1=NOC(NC(=O)c2ccc(C3=NO[C@@](c4cc(Cl)cc(C(F)(F)F)c4)(C(F)(F)F)C3)cc2C)C1 (stereo partly drawn) [Compound A050]
≥ 80%: percent effect (mortality or growth inhibition) at 200 ppm (Plutella xylostella) | mortality at 200 ppm (Myzus persicae) | percent control (mortality, anti-feedant effect or growth inhibition) at 200 ppm (Spodoptera littoralis) | percent effect (mortality or growth inhibition) at 200 ppm (Diabrotica Balteata) | mortality at 200 ppm (Tetranychus urticae) | mortality at 200 ppm (Thrips tabaci)

CCSC1=NOC(NC(=O)c2ccc(C3=NO[C@@](c4cc(Cl)cc(C(F)(F)F)c4)(C(F)(F)F)C3)cc2C)C1 (stereo partly drawn) [Compound A051]
≥ 80%: percent effect (mortality or growth inhibition) at 200 ppm (Plutella xylostella) | mortality at 200 ppm (Myzus persicae) | percent control (mortality, anti-feedant effect or growth inhibition) at 200 ppm (Spodoptera littoralis) | percent effect (mortality or growth inhibition) at 200 ppm (Diabrotica Balteata) | mortality at 200 ppm (Tetranychus urticae) | mortality at 200 ppm (Thrips tabaci)

CCSC1=NOC(NC(=O)c2ccc(C3=NO[C@@](c4cc(Cl)c(Cl)c(Cl)c4)(C(F)(F)F)C3)cc2C)C1 (stereo partly drawn) [Compound A052]
≥ 80%: percent effect (mortality or growth inhibition) at 200 ppm (Plutella xylostella) | mortality at 200 ppm (Myzus persicae) | percent control (mortality, anti-feedant effect or growth inhibition) at 200 ppm (Spodoptera littoralis) | percent effect (mortality or growth inhibition) at 200 ppm (Diabrotica Balteata) | mortality at 200 ppm (Tetranychus urticae) | mortality at 200 ppm (Thrips tabaci)

COC1=NOC(NC(=O)c2ccc(C3=NO[C@@](c4cc(Cl)cc(Cl)c4)(C(F)(F)F)C3)cc2C)C1 (stereo partly drawn) [Compound A054]
≥ 80%: percent effect (mortality or growth inhibition) at 200 ppm (Plutella xylostella) | mortality at 200 ppm (Myzus persicae) | percent control (mortality, anti-feedant effect or growth inhibition) at 200 ppm (Spodoptera littoralis) | percent effect (mortality or growth inhibition) at 200 ppm (Diabrotica Balteata) | mortality at 200 ppm (Tetranychus urticae) | mortality at 200 ppm (Thrips tabaci)

Cc1cc(C2=NO[C@@](c3cc(Cl)cc(Cl)c3)(C(F)(F)F)C2)ccc1C(=O)NC1CC(Br)=NO1 (stereo partly drawn) [Compound A055]
≥ 80%: percent effect (mortality or growth inhibition) at 200 ppm (Plutella xylostella) | mortality at 200 ppm (Myzus persicae) | percent control (mortality, anti-feedant effect or growth inhibition) at 200 ppm (Spodoptera littoralis) | percent effect (mortality or growth inhibition) at 200 ppm (Diabrotica Balteata) | mortality at 200 ppm (Tetranychus urticae) | mortality at 200 ppm (Thrips tabaci)

Cc1cc(C2=NO[C@@](c3cc(Cl)cc(Cl)c3)(C(F)(F)F)C2)ccc1C(=O)N(C=O)C1CC(Br)=NO1 (stereo partly drawn) [Compound A056, N-(3-bromo-4,5-dihydroisoxazol-5-yl)-4-[(5S)-5-(3,5-dichlorophenyl)-5-(trifluoromethyl)-4H-isoxazol-3-yl]-N-formyl-2-methyl-benzamide]
≥ 80%: percent effect (mortality or growth inhibition) at 200 ppm (Plutella xylostella) | mortality at 200 ppm (Myzus persicae) | percent control (mortality, anti-feedant effect or growth inhibition) at 200 ppm (Spodoptera littoralis) | percent effect (mortality or growth inhibition) at 200 ppm (Diabrotica Balteata) | mortality at 200 ppm (Tetranychus urticae) | mortality at 200 ppm (Thrips tabaci)
